# Experimental data taken from PMC2944806, “HLA Class I Binding of HBZ Determines Outcome in HTLV-1 Infection” (PLoS Pathogens, 2010).
# Target: HLA class I molecule B*3501 (Homo sapiens, UniProt P01889, A329T/A93T/A95T/C349S/D201E/D98Y/E176V/E187L/E204Q/E69T/I218V/K202T/L119I/Q94N/R155S/R180L/S121R/S35A/S48A/T118I/V127L/V306I/V36M/Y140S/Y91F)
# Experiment: REVEAL HLA-peptide binding assay, B*3501
# Conditions: assembly of peptide-HLA complex by ELISA with conformation-dependent anti-HLA antibody, relative to positive control peptide for that allele, comparable within an allele only
# Description: The REVEAL HLA-peptide binding assay (ProImmune Ltd., Oxford, UK) was used to quantify peptide-HLA binding. For each allele-peptide combination that was tested, assembly of peptide-HLA complexes was quantified by ELISA with a conformation-dependent anti-HLA antibody. Samples of assembling peptide-HLA complexes were taken at a defined time point and snap-frozen in liquid nitrogen prior to analysis. The assembly for each peptide-HLA complex was then compared against a positive control peptide for that allele as the percentage of assembled peptide relative to that control. We selected four HLA class I alleles and 50 HTLV-1 peptides for each allele. The allele choice was based on allele frequency in the Kagoshima database and included 2 A alleles and 2 B alleles as well as alleles for which we knew that the epitope prediction tended to be poor. The 50 HTLV-1 nonamer peptides for each allele were selected to represent a range of predicted binding affinities, from weak to strong binding peptides. They originated from 4 HTLV-1 reference strain proteins: Tax, HBZ, Gag and Polymerase.
# Note the binding score is with respect to a reference good binding peptide for each allele and therefore scores can be compared within an allele but not between alleles.
row,Sequence,"Score (experimentally measured binding affinity, % binding compared to control peptide) [%]"
1,FPTQRTSKT [HTLV-1 nonamer peptide],81.35
2,WPLLPHVIF [HTLV-1 nonamer peptide],49.66
3,WTFTDGTPM [HTLV-1 nonamer peptide],137.29
4,FPQCTILQY [HTLV-1 nonamer peptide],103.38
5,QAAPGSPQF [HTLV-1 nonamer peptide],86.5
6,EPGPSSYDF [HTLV-1 nonamer peptide],102.27
7,EPEEDALLL [HTLV-1 nonamer peptide],11.92
8,EEEKQIAEY [HTLV-1 nonamer peptide],8.99
9,DPILRSLAY [HTLV-1 nonamer peptide],72.18
10,LASLLPKGY [HTLV-1 nonamer peptide],98.24
11,WALPELQAL [HTLV-1 nonamer peptide],73.45

# Target: T1, HLA class I molecule A*0201 (Homo sapiens, UniProt P04439, D140Y/D185E/D98H/E176V/E277Q/G131W/G231S/I119V/I121R/I166T/I218V/L300P/L318F/N151K/N90K/P208A/P217A/Q86G/Q94H/R138H/R169H/T345S)
# T1 construct: purchased ProImmune Ltd., Oxford, UK
# Experiment: not given
# Type: binding
# Conditions: REVEAL assay, assembly of peptide-HLA complex by ELISA with conformation-dependent anti-HLA antibody, relative to positive control peptide for that allele, comparable within an allele only
row,Sequence,"Score (experimentally measured binding affinity, % binding compared to control peptide) [%]"
1,LLITPVLQL [HTLV-1 nonamer peptide],114.87
2,QLWLAAFAA [HTLV-1 nonamer peptide],64.37
3,LQYLCSSLV [HTLV-1 nonamer peptide],47.17
4,TLYRLHVWV [HTLV-1 nonamer peptide],73.87
5,QLEGEVESL [HTLV-1 nonamer peptide],18.58
6,LLQYLCSSL [HTLV-1 nonamer peptide],45.68
7,QLDSLISEA [HTLV-1 nonamer peptide],52.07
8,LMGEVNYWQ [HTLV-1 nonamer peptide],12.98
9,QLGAFLTNV [HTLV-1 nonamer peptide],80.99
10,YLCSSLVAS [HTLV-1 nonamer peptide],42.17
11,TLTAWQNGL [HTLV-1 nonamer peptide],54.64
12,YLYQLSPPI [HTLV-1 nonamer peptide from Tax],132.52
13,AAGAALIPV [HTLV-1 nonamer peptide],34.35
14,TLSFPDPGL [HTLV-1 nonamer peptide],0
15,ILIQTQAQI [HTLV-1 nonamer peptide],79.21
16,TLGQHLPTL [HTLV-1 nonamer peptide],54.56
17,FMQTIRLAV [HTLV-1 nonamer peptide from Gag],95.61
18,GIDGYTRQL [HTLV-1 nonamer peptide],28.99
19,ILPEDCLPT [HTLV-1 nonamer peptide],15.96
20,LLLDLPADI [HTLV-1 nonamer peptide],77.78
21,ALLGEIQWV [HTLV-1 nonamer peptide from Pol],84.64
22,KLLQEKEDL [HTLV-1 nonamer peptide],0
23,QLLASAVLL [HTLV-1 nonamer peptide],100.23
24,LLYKISLTT [HTLV-1 nonamer peptide],78.05
